Experimental data from patent US20250161263A1, “USE OF A COMPOUND, PHARMACEUTICAL FORMULATION, METHOD OF TREATMENT FOR ASTHMA AND/OR COPD, AND COMPOUND” (FUNDAÇÃO OSWALDO CRUZ, priority 2022, published 2025).
Entries after “also recorded” stand apart in the source; their conditions may differ.

Key:
Type in all cases: in vivo, mice (BALB/c)
[1] = test system: inflammatory cells in lung tissue; test: Pulmonary inflammatory infiltrate, HE-stained lung sections, airway hypersensitivity model; conditions: 50 mg/kg inhaled, vs vehicle, p<0.05
Protocol: The mice were divided into groups of six animals and immunized with a subcutaneous injection of 10 μg of ovalbumin (Sigma, St. Louis, MO) diluted in 2 mg/ml alum (Alunmlmject; Pierce, Rockford, IL), followed by of a booster injection 14 days later. From day 28 onwards, the mice were placed in an acrylic box and subjected to inhalation exposure to ovalbumin (1%) for 15 minutes per day, for five consecutive days. The ovalbumin solution was nebulized using an ultrasonic inhaler (RespiraMax, Brazil). […] The naive group was challenged with saline only.
After collecting the bronchoalveolar lavage, lung perfusion was performed intratracheally with 1 ml formalin (4%) and, subsequently, the right lobe of the lungs of each animal was removed and fixed in the same solution for histological and morphometric analysis. The sections were stained with hematoxylin and eosin to quantify inflammatory cells by optical microscopy according to the number of cores present in the fields with the largest population of cells. […] 10 fields (400×) per animal were analyzed for a total of 5 animals, and the data were used to calculate the average number of cells per mm^2, or the area stained with PAS. The program used to assist in cell counting and area determination was Image-Pro PLUS, version 4.5 (Media Cybernetics, Silver Spring, USA).

[2] = test system: IL-4; test: IL-4 in bronchoalveolar lavage by ELISA, airway hypersensitivity model; conditions: p<0.05
Protocol: (§1) The ovalbumin-induced airway hypersensitivity model (BOLANDI et al., 2021), used as the basis for the present findings, induces pathophysiological and structural changes which characterize respiratory diseases such as asthma and chronic obstructive pulmonary disease (COPD).
(§2) The mice were divided into groups of six animals and immunized with a subcutaneous injection of 10 μg of ovalbumin (Sigma, St. Louis, MO) diluted in 2 mg/ml alum (Alunmlmject; Pierce, Rockford, IL), followed by of a booster injection 14 days later. From day 28 onwards, the mice were placed in an acrylic box and subjected to inhalation exposure to ovalbumin (1%) for 15 minutes per day, for five consecutive days. The ovalbumin solution was nebulized using an ultrasonic inhaler (RespiraMax, Brazil). […]
The animals were euthanized with a lethal dose of ketamine and xylazine (300 mg/Kg and 30 mg/Kg, respectively via i.p.) 24 hours after the last challenge to collect bronchoalveolar lavage (BAL). […] The first wash was centrifuged and the supernatant stored at −70° C. for subsequent quantification of cytokines by ELISA. […]
(§3) The bronchoalveolar lavage supernatant stored at −70° C. was thawed and used to quantify the cytokines IL-4, IL-5 and IL-13 by the ELISA method, using specific kits (R&D System, Minnesota, MN, USA) for mice, following the manufacturer's instructions (VASCONCELOS, 2009).

[3] = test system: eosinophils, neutrophils and mononuclear cells in bronchoalveolar lavage; test: Differential count of eosinophils, neutrophils and mononuclear cells in bronchoalveolar lavage, airway hypersensitivity model; conditions: 50 mg/Kg by inhalation
Protocol: as §1
(§4) The mice were divided into groups of six animals and immunized with a subcutaneous injection of 10 μg of ovalbumin (Sigma, St. Louis, MO) diluted in 2 mg/ml alum (Alunmlmject; Pierce, Rockford, IL), followed by of a booster injection 14 days later. From day 28 onwards, the mice were placed in an acrylic box and subjected to inhalation exposure to ovalbumin (1%) for 15 minutes per day, for five consecutive days. The ovalbumin solution was nebulized using an ultrasonic inhaler (RespiraMax, Brazil). The protocol used to induce airway hypersensitivity was performed as previously described (POSSA, 2013). The naive group was challenged with saline only. To carry out the treatments, two hours before each challenge via inhalation, the mice were treated with braylin ([…] and 12.5 mg/kg, via inhalation), dexamethasone (30 mg/kg via intraperitoneal) or vehicle (10% propylene glycol in saline, inhaled).
(§5) The animals were euthanized with a lethal dose of ketamine and xylazine (300 mg/Kg and 30 mg/Kg, respectively via i.p.) 24 hours after the last challenge to collect bronchoalveolar lavage (BAL). Intratracheal instillation of 1 ml of ice-cold PBS was performed, followed by BAL collection, and this procedure was repeated. The first wash was centrifuged and the supernatant stored at −70° C. for subsequent quantification of cytokines by ELISA. The second wash was centrifuged, the supernatant was discarded and the pellets were resuspended in 1 ml of saline to count total leukocytes using a Neubauer chamber. To carry out the differential cell count, 10,000 cells were collected from the previous resuspension, centrifuged in Cytospin® and stained with hematoxylin and eosin (VASCONCELOS, 2009).

[4] = test system: IL-5; test: IL-5 in bronchoalveolar lavage by ELISA, airway hypersensitivity model
Protocol: as §1, §4
as §5, with “To carry out the differential cell count, 10,000 cells were collected from the previous resuspension, centrifuged in Cytospin® and stained with hematoxylin and eosin (VASCONCELOS, 2009).” left out
as §3

[5] = test system: PAS-labeled mucus-producing goblet cells of the bronchiolar epithelium; test: Goblet cell metaplasia / mucus production, PAS-stained lung sections, airway hypersensitivity model; conditions: braylin treatment (FIG. 5: 50 mg/kg/in), p<0.05
Protocol: as §1, §2
After collecting the bronchoalveolar lavage, lung perfusion was performed intratracheally with 1 ml formalin (4%) and, subsequently, the right lobe of the lungs of each animal was removed and fixed in the same solution for histological and morphometric analysis. The sections were stained with hematoxylin and eosin to quantify inflammatory cells by optical microscopy according to the number of cores present in the fields with the largest population of cells. To quantify mucus production, staining was performed with periodic acid-Schiff (PAS) and the marked areas were quantified. […]

[6] = test system: IL-13; test: IL-13 in bronchoalveolar lavage by ELISA, airway hypersensitivity model
Protocol: as §1, §4
as §5, with “To carry out the differential cell count, 10,000 cells were collected from the previous resuspension, centrifuged in Cytospin® and stained with hematoxylin and eosin (VASCONCELOS, 2009).” left out
as §3

[7] = test system: total inflammatory cells in bronchoalveolar lavage (airway hypersensitivity model in mice); test: Total inflammatory cell count in bronchoalveolar lavage, ovalbumin-induced airway hypersensitivity model; conditions: vs vehicle
Protocol: as §1
as §2, with “Brazil). The protocol used to induce airway hypersensitivity was performed as previously described (POSSA, 2013). The naive group was challenged with saline only.” for “Brazil).”
as §5

Which results are given for `COc1cc2ccc(=O)oc2c2c1OC(C)(C)C=C2` [braylin]?
lung inflammation, presence of inflammatory cells in HE-stained lung [1]: reduction in lung inflammation; level of IL-4 in BAL ([2]; 25 mg/kg inhaled): reduced; level of IL-4 in BAL ([2]; 50 mg/kg inhaled): reduced; quantity of mononuclear cells in BAL ([3]; compared with naive group): approached the values found in mice in the naive group; amount of eosinophils present in BAL ([3]; vs vehicle, p<0.05): reduced; amount of neutrophils present in BAL ([3]; vs vehicle, p<0.05): reduced; level of IL-5 in BAL ([4]; 12.5 mg/kg inhaled): significant reduction; level of IL-5 in BAL ([4]; 25 mg/kg inhaled, p<0.05): reduced; level of IL-5 in BAL ([4]; 50 mg/kg inhaled, p<0.05): reduced; Goblet cell labeling (PAS) in the bronchiolar epithelium, mucus production [5]: reduced; level of IL-13 in BAL ([6]; 12.5 mg/kg inhaled): significant reduction; level of IL-13 in BAL ([6]; 25 mg/kg inhaled, p<0.05): reduced; level of IL-13 in BAL ([6]; 50 mg/kg inhaled, p<0.05): reduced; number of inflammatory cells in the BAL ([7]; 12.5 mg/kg by inhalation): no effect; number of inflammatory cells in the BAL ([7]; 25 mg/kg by inhalation, p<0.05): reduced; number of inflammatory cells in the BAL ([7]; 50 mg/kg by inhalation, 5 consecutive days, p<0.05): significantly lower; also recorded: reduced; number of inflammatory cells in the BAL ([7]; 50 mg/kg intraperitoneally, 5 consecutive days, p<0.05): significantly lower; number of inflammatory cells in the BAL ([7]; 100 mg/kg by inhalation, p<0.05): reduced
